The test system of test [1] is ear hole injury in WT and CXCR2-KO mice. In words: Ear hole closure with topical imiquimod 5% cream. The test is classed as in vivo. The protocol: For ear wounding, a standard 2 mm mechanical punch (Roboz, Gaithersburg, MD) was used to create a hole in the center of each outer ear (pinna). Ear hole diameter was measured using a dissection microscope (Nikon) in the horizontal and vertical directions on a weekly basis. Ears were excluded if there were signs of wound infection, tearing of the ear, or abnormal geometric shape. These criteria were pre-established. For the antibiotic experiments, the same protocol as previously published was used (11).
To assess whether the CXCR2-mediated pathway utilized the same molecular mechanism, […] imiquimod 5% cream was rubbed on skin 5 days per week, beginning one week prior to ear hole injury in WT and CXCR2-KO mice. […] Imiquimod-treated CXCR2-KO mice achieved complete ear hole closure at a 90% frequency, which was >2-fold higher than CXCR2-KO mice (FIG. 9B, bottom graphs). Indeed, this 90% complete closure rate in imiquimod-treated CXCR2-KO mice is greater than the individual imiquimod or CXCR2 components combined.

Test [2] has as its system Cxcl2. Conditions: exogenous CFH; cited from earlier work.
The test system of test [3] is WT mice undergoing WIHN. In words: Wound induced hair neogenesis (WIHN), injection into the wound bed. It is filed as in vivo. Conditions: recombinant G-CSF vs PBS injected daily into wound beds of WT mice for the first 3 days. As for the experimental part: To assess whether the circulating factor(s) was a cell or protein, plasma from CXCR2-KO and WT (control) mice was collected and injected daily into the wound beds of WT mice undergoing WIHN for the first 3 days after injury (FIG. 4B). The WIHN model was used because the wound bed was more accessible. […] Thus, a circulating protein in CXCR2-KO plasma improves tissue regeneration.
(§1) Next, recombinant G-CSF or PBS (control) was injected daily into the wound beds of WT mice undergoing WIHN for the first 3 days (FIG. 4D). […] This experiment was repeated in the stented back wound model. G-CSF-treated mice healed with >3-fold less scar formation compared to control mice (FIG. 4E). […] Taken together, exogenous G-CSF is sufficient to reduce scar formation and to promote complete tissue regeneration.
1-cm^2 full-thickness skin wounds were made as previously described (10). 5-weeks later, de novo hair follicles were identified by whole-mount alkaline phosphatase staining of dermis preparations as previously described.

For test [4], the system named is stented back wounds on WT mice. In words: Stented back wound model. It is filed as in vivo. As for the experimental part:
as §1
(§2) In our single-cell datasets, neutrophils and macrophages were the primary cell types in injured skin to express the G-CSF receptor (Csfr3) (FIG. 8D). […] Immunofluorescence confirmed that macrophages in WT and CXCR2-KO injured skin expressed the G-CSF receptor (FIG. 8E). […] Moreover, wounded tissue was collected at day 4 after injury in the stented back wound model from G-CSF-treated or PBS-treated WT mice. […] Taken together, G-CSF reduces scar formation and promotes tissue regeneration through polarization of infiltrating macrophages into an anti-inflammatory phenotype.
6 mm disposable biopsy punch (Acuderm) was used to make two circular full thickness wounds on the dorsal back skin of mice. Silicon wound splints (Grace Bio-Labs) were sutured with 4-0 Nylon to prevent skin contracture. Wounds were dressed with a sterile occlusive dressing and monitored daily. Borders were monitored by frequently application of permanent marker.
Standard histology and immunostaining protocols were performed, and investigators were blinded during histologic staining. 4% paraformaldehyde was used as the fixative. Briefly, immunohistochemical analysis was performed on 5-10 μm-thick sections of mouse skin. The following primary antibodies were used: rabbit monoclonal anti-Arginase-1 (93668, Cell Signaling Technology), rabbit polyclonal anti-CD80 (8679, ProSci), rabbit polyclonal anti-Histone H3 (ab5103, Abcam), goat polyclonal anti-MPO (AF3667, R&D Systems), Goat polyclonal anti-CD206 (AF2535, R&D Systems), rabbit monoclonal anti-F4/80 (70076, Cell Signaling Technology), rabbit polyclonal anti-COX2 (ab15191, Abcam), rabbit anti-iNOS (2982, Cell Signaling Technology), rabbit polyclonal anti-GCSFR (bs-2574R, Bioss) rabbit monoclonal anti-CD163 (68922, Cell Signaling Technology) and rat anti-Ly6G (551459, BD Pharmingen). […] After staining, images were directly analyzed using a Leica Microsystems DM6 B microscope equipped with a DFC9000 Camera or Keyence imaging system. […] Immunofluorescent images were analyzed using FIJI (40). The signal for the protein of interest was calculated as the percent area occupied by the cells positive for the protein of interest within the tissue section.
The paraffin sections were first de-waxed and hydrated. […] The acquired images were analyzed for fibrosis by quantifying the percent of collagen 1 (PSR) signal within the wounded tissue region. […]

Test [5] concerns epidermolysis bullosa patients. As to conditions: systemic G-CSF; cited from earlier work.
For test [6], the system named is bone-marrow derived monocytes. In words: In vitro polarization of bone-marrow derived monocytes (bulk RNA-seq gene expression). It is filed as cell-based, mouse. Conditions: monocytes treated with and without G-CSF, gene expression levels (FPKM).
Description: as §2
Monocytes were lysed immediately by adding TRIzol LS reagent. The samples were vortexed for 20 seconds, 0.2×volumes of chloroform was added, tubes were mixed by inverting and samples were centrifuged at 13,000 rpm at 4° C. for 15 min. The aqueous phase was then purified and the RNA-seq library were made using NEBNext® Low Input RNA Library Prep Kit (E6420S/L), following the manufacturer's instructions.
Fastq files were aligned to the mm10 reference genome using STAR_2.4.0 in basic two Pass mode using the “Encode” options as specified in the manual. Reads overlapping with annotated genes (Ensembl build mm10) were counted using the summarizeOverlaps function from the R package “GenomicAlignments” in strand-specific, paired-end mode. […]

We go through 3 molecules from patent publication US20250255932A1, “Granulocyte-Colony Stimulating Factor For The Promotion Of Scarless Tissue Regeneration” (The United States Government As Represented By The …, priority 2024, published 2025).

In the case of `CC(C)Cn1cnc2c(N)nc3ccccc3c21` [Imiquimod, imiquimod], the ear hole closure entry in test [1] (imiquimod 5% cream on skin 5 days per week from one week prior to injury, vs control-treated mice) is “closed their ear holes even more efficiently than control-treated mice”. The “frequency of complete ear hole closure” value in test [1] (imiquimod-treated CXCR2-KO mice) turned out to be 90%. Also, in test [1] (imiquimod-treated CXCR2-KO mice vs CXCR2-KO mice), the “complete ear hole closure frequency relative to CXCR2-KO mice” value is reported as above 2 fold.

Turning to complement factor H [CFH], in test [2], the “fibroblast-specific expression of Cxcl2” value is “reduces fibroblast-specific expression of Cxcl2”, the macrophage recruitment entry is reported as “no changes in macrophage recruitment”, the neutrophil recruitment result is on record as “reduced neutrophil recruitment” and the tissue regeneration entry is recorded as “partial tissue regeneration”.

B1: Granulocyte Colony-Stimulating Factor (protein, UniProt P09920 31-208, looked up)
Granulocyte …: VPLVTVSALPPSLPLPRSFLLKSLEQVRKIQASGSVLLEQLCATYKLCHPEELVLLGHSLGIPKASLSGCSSQALQQTQCLSQLHSGLCLYQGLLQALSGISPALAPTLDLLQLDVANFATTIWQQMENLGVAPTVQPTQSAMPAFTSAFQRRAGGVLAISYLQGFLETARLALHHLA
notes: recombinant G-CSF injected into wound beds of WT mice
For B1, the “increase in hair follicle regeneration compared to control mice” value in test [3] was 5 fold. Moreover, the “less scar formation compared to control mice” value in test [4] (G-CSF vs PBS, scar size at day 28 after injury) was above 3 fold. Besides, the “fibrosis in healed skin (picrosirius red staining)” value in test [4] (G-CSF-treated WT mice vs control skin) is “less fibrosis than control skin”. Also, the “anti-inflammatory macrophages (Cd163 and Mrc1) in wounded tissue” value in test [4] (day 4 after injury, G-CSF-treated vs PBS-treated WT mice) was “more anti-inflammatory macrophages”. In test [4] (histological analysis, G-CSF-treated WT mice (PBS ~1.8 mm)), the average scar diameter is given as around 0.5 mm. For the same molecule, the “blister counts and wound sizes” value in test [5] was “reduced blister counts and wound sizes”. Moreover, the polarization of monocytes result in test [6] is reported as “directly polarized in vitro bone-marrow derived monocytes into an anti-inflammatory state”.
